We go through four compounds from ChEMBL document CHEMBL1126063, “A novel probe for the cannabinoid receptor” (J Med Chem, 1992).

One experiment deals with Cannabinoid receptor (Rattus norvegicus, UniProt Q9QZN9+P20272). The experiment can be described thus: Compound was evaluated for the competitive inhibition of [3H]3-(1,1-Dimethyl-heptyl)-9-hydroxymethyl-6,6-dimethyl-6a,7,8,9,10,10a-hexahydro-6H-benzo[c]chromen-1-ol to cannabinoid receptor from synaptosomal membranes of rat whole brain.
The subject of experiment [1] is Columba livia. The experiment can be described thus: Effective dose injected to pigeons in drug discrimination test at a given period of 1.5 hours. Format: functional. Conditions: in Columbidae.
The subject of experiment [2] is Columba livia. Briefly: Effective dose injected to pigeons in drug discrimination test at a given period of 4.5 hours. Conditions: in Columbidae. The format is functional.
For experiment [3], the system named is Columba livia. The experiment can be described thus: Effective dose injected to pigeons in drug discrimination test at a given period of 9.0 hours. Format: functional. Conditions: in Columbidae.

For the compound `CCCCCCC(C)(C)c1cc(O)c2c(c1)OC(C)(C)[C@@H]1CC=C(CO)CC21` (some centres not stated), the inhibition constant Ki on Cannabinoid receptor was 0.181 nM. The ED50 in the experiment with Columba livia [1] came out at 4 µg/kg; in the experiment with Columba livia [2] it was 2 µg/kg; in the experiment with Columba livia [3], 2 µg/kg.
`CCCCCc1cc(O)c2c(c1)OC(C)(C)[C@@H]1CCC(C)=C[C@@H]21` [DRONABINOL]: the values for the ED50 in the experiment with Columba livia [1], in the experiment with Columba livia [2] and with Columba livia [3] were 160 µg/kg, 250 µg/kg and 1210 µg/kg, respectively.
`CCCCCCC(C)(C)c1cc(O)c2c(c1)OC(C)(C)[C@@H]1CC[C@@H](CO)CC21` (some centres not stated) returned a Ki on Cannabinoid receptor of 0.045 nM. Further, the ED50 in the experiment on Columba livia [1] came to 5 µg/kg; in the experiment with Columba livia [2] it was 2 µg/kg; in the experiment on Columba livia [3], 3 µg/kg.
`CCCCCCC(C)(C)c1cc(O)c2c(c1)OC(C)(C)C1CC=C(CO)CC21` (configuration not stated): the Ki at Cannabinoid receptor worked out at 466 nM.

Usually Ki stands for the equilibrium dissociation constant of an inhibitor or competing ligand from its target. High values mean lower affinity, low ones higher affinity. What is called ED50 is the midpoint of the dose-response relation. Low values mean greater potency, high ones weaker potency.
